In PubChem BioAssay AID192 (DTP/NCI, 2004):
Where “and” joins values, the source holds several entries; their conditions need not be identical. Equal entries are not always repeated. Inconclusive results and toxic doses are left out. How the source made its calls: active means survival T/C of 150% or more; inactive means T/C below 125% in these data. Peptide text beside a SMILES is read from it.

Tested on: BDF1 mice, B16 melanoma ip, median survival T/C
Assay: NCI In Vivo Anticancer Drug Screen. Data for tumor model B16 Melanoma (intraperitoneal) in B6D2F1 (BDF1) mice
Settings: endpoint: median survival time, higher = longer survival
In short: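 Values are ratios of treated (T) to vehicle-control (C) measurements of survival or tumor size in tumor-bearing mice.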

[1] = dose: 100.0 mg/kg/injection, schedule: Q01DX009 (ip), vehicle: Klucel (hydroxypropylcellulose) (HPC)
[2] = dose: 200.0 mg/kg/injection, schedule: Q01DX009 (ip), vehicle: Klucel (hydroxypropylcellulose) (HPC)
[3] = dose: 200.0 mg/kg/injection, schedule: Q04DX003 (ip), vehicle: Klucel (hydroxypropylcellulose) (HPC)
[4] = dose: 50.0 mg/kg/injection, schedule: Q01DX009 (ip), vehicle: other
[5] = dose: 12.5 mg/kg/injection, schedule: Q01DX009 (ip), vehicle: saline
[6] = dose: 25.0 mg/kg/injection, schedule: Q01DX009 (ip), vehicle: saline
[7] = dose: 50.0 mg/kg/injection, schedule: Q01DX009 (ip), vehicle: saline
[8] = dose: 100.0 mg/kg/injection, schedule: Q01DX009 (ip), vehicle: saline
[9] = dose: 200.0 mg/kg/injection, schedule: Q01DX009 (ip), vehicle: saline
[10] = dose: 25.0 mg/kg/injection, schedule: Q01DX009 (ip), vehicle: saline with Tween-80
[11] = dose: 50.0 mg/kg/injection, schedule: Q01DX009 (ip), vehicle: saline with Tween-80
[12] = dose: 100.0 mg/kg/injection, schedule: Q01DX009 (ip), vehicle: saline with Tween-80

Measured: T/C

CC(C)CC(N)C(=O)NCC(=O)NC(Cc1ccccc1)C(=O)O (stereo not drawn) (H-Leu-Gly-Phe-OH; configuration not given here)
inactive: [1] 93 % of control | dose: 100.0 mg/kg/injection, schedule: Q04DX003 (ip), vehicle: Klucel (hydroxypropylcellulose) (HPC) 95 % of control | [2] 91 % of control | [3] 97 % of control | dose: 400.0 mg/kg/injection, schedule: Q01DX009 (ip), vehicle: Klucel (hydroxypropylcellulose) (HPC) 89 % of control | dose: 400.0 mg/kg/injection, schedule: Q04DX003 (ip), vehicle: Klucel (hydroxypropylcellulose) (HPC) 102 % of control

[Cl][Pt+2]([Cl])([Cl])[Cl].[NH-]C1CCCCC1.[NH-]C1CCCCC1
inactive: dose: 6.25 mg/kg/injection, schedule: Q01DX009 (ip), vehicle: other 124 % of control | dose: 12.5 mg/kg/injection, schedule: Q01DX009 (ip), vehicle: other 111 % of control | dose: 25.0 mg/kg/injection, schedule: Q01DX009 (ip), vehicle: other 112 % of control | [4] 103 % of control

CC(=O)C1(O)CCCCC1
inactive: dose: 100.0 mg/kg/injection, schedule: Q04DX003 (ip), vehicle: saline 95 % of control | dose: 200.0 mg/kg/injection, schedule: Q04DX003 (ip), vehicle: saline 100 % of control | dose: 400.0 mg/kg/injection, schedule: Q04DX003 (ip), vehicle: saline 100 % of control

COc1ccc2c(=O)cc(-c3ccccc3)[nH]c2c1
inactive: [5] 114 % of control | [6] 117 % of control | [7] 120 % of control

Cn1c(=O)c2[nH]c(Cc3ccsc3)nc2n(C)c1=O
inactive: dose: 12.5 mg/kg/injection, schedule: Q01DX009 (ip), vehicle: Klucel (hydroxypropylcellulose) (HPC) 104 % of control | dose: 25.0 mg/kg/injection, schedule: Q01DX009 (ip), vehicle: Klucel (hydroxypropylcellulose) (HPC) 107 % of control | dose: 50.0 mg/kg/injection, schedule: Q01DX009 (ip), vehicle: Klucel (hydroxypropylcellulose) (HPC) 96 % of control

CC(C)NNC(=O)C(N)CCC(=O)O (stereo unspecified)
inactive: [6] 97 % of control | [7] 104 % of control | [8] 95 % of control | [9] 100 % of control

C=CCCC(=O)CCCC(=O)O[C@@H]1[C@@H]2[C@H](CC1(C)C)[C@H](O)[C@@]13O[C@@H]1[C@H](O)[C@@]1(CO1)[C@@]23C
inactive: dose: 6.2 micrograms/kg/injection, schedule: Q01DX009 (ip), vehicle: saline 98 % of control | dose: 6.3 micrograms/kg/injection, schedule: Q01DX009 (ip), vehicle: Klucel (hydroxypropylcellulose) (HPC) 107 % of control | dose: 12.5 micrograms/kg/injection, schedule: Q01DX009 (ip), vehicle: Klucel (hydroxypropylcellulose) (HPC) 121 % of control | dose: 12.5 micrograms/kg/injection, schedule: Q01DX009 (ip), vehicle: saline 97 % of control | dose: 25.0 micrograms/kg/injection, schedule: Q01DX009 (ip), vehicle: saline 106 % of control | dose: 50.0 micrograms/kg/injection, schedule: Q01DX009 (ip), vehicle: Klucel (hydroxypropylcellulose) (HPC) 91 % of control | dose: 50.0 micrograms/kg/injection, schedule: Q01DX009 (ip), vehicle: saline 102 % of control

N=C(N)SCc1ccc(CSC(=N)N)s1
inactive: dose: 7.5 mg/kg/injection, schedule: Q01DX009 (ip), vehicle: saline 101 % of control | dose: 15.0 mg/kg/injection, schedule: Q01DX009 (ip), vehicle: saline 99 % of control | dose: 30.0 mg/kg/injection, schedule: Q01DX009 (ip), vehicle: saline 104 % of control

C[Si](C)(C)Cc1ccccc1
inactive: [1] 114 % of control | [2] 109 % of control

CC1(C)COCN1COCCOCN1COCC1(C)C
inactive: dose: 6.25 mg/kg/injection, schedule: Q01DX009 (ip), vehicle: saline 102 % of control | [5] 103 % of control | [6] 113 % of control | [7] 118 % of control | [8] 120 % of control

CCCCCCCCCCCC(c1ccccc1)[N+](C)(C)C (stereo unspecified)
inactive: dose: 1.0 mg/kg/injection, schedule: Q01DX009 (ip), vehicle: saline sonified 105 % of control | dose: 2.0 mg/kg/injection, schedule: Q01DX009 (ip), vehicle: saline sonified 110 % of control | dose: 4.0 mg/kg/injection, schedule: Q01DX009 (ip), vehicle: saline sonified 105 % of control | dose: 8.0 mg/kg/injection, schedule: Q01DX009 (ip), vehicle: saline sonified 100 % of control

CC(C)CC(Br)C(=O)NC(CC(C)C)C(=O)O (stereo unspecified)
inactive: [10] 95 % of control | [11] 100 % of control | [12] 95 % of control and 100 % of control | dose: 400.0 mg/kg/injection, schedule: Q01DX009 (ip), vehicle: saline with Tween-80 108 % of control

CCN(C(=O)Nc1ccccc1OC)c1ccccc1
inactive: [1] 89 % of control

CCSc1ccc2c(cc1=O)[C@@H](NC1OC(CO)C(O)C(O)C1O)CCc1cc(OC)c(OC)c(OC)c1-2 (stereo partly specified)
inactive: [4] 101 % of control | dose: 100.0 mg/kg/injection, schedule: Q01DX009 (ip), vehicle: other 109 % of control

O=C(O)c1ccc(S(=O)(=O)O)cc1C(=O)O
inactive: [7] 92 % of control | [8] 96 % of control | [9] 98 % of control

COc1cc2c(c(OC)c1OC)-c1c(cc3c(c1OC)OCO3)CC(C)C(C)(O)C2OC(=O)c1ccccc1 (stereo unspecified)
inactive: dose: 11.25 mg/kg/injection, schedule: Q01DX009 (ip), vehicle: saline + Tween-80 + alcohol 106 % of control | dose: 22.5 mg/kg/injection, schedule: Q01DX009 (ip), vehicle: saline + Tween-80 + alcohol 97 % of control | dose: 45.0 mg/kg/injection, schedule: Q01DX009 (ip), vehicle: saline + Tween-80 + alcohol 97 % of control | dose: 90.0 mg/kg/injection, schedule: Q01DX009 (ip), vehicle: saline + Tween-80 + alcohol 91 % of control

C/C=C(\CC)C(=O)NC(N)=O
inactive: dose: 12.5 mg/kg/injection, schedule: Q04DX003 (ip), vehicle: Klucel (hydroxypropylcellulose) (HPC) 93 % of control | dose: 25.0 mg/kg/injection, schedule: Q04DX003 (ip), vehicle: Klucel (hydroxypropylcellulose) (HPC) 100 % of control | dose: 50.0 mg/kg/injection, schedule: Q04DX003 (ip), vehicle: Klucel (hydroxypropylcellulose) (HPC) 93 % of control | [3] 95 % of control

CCNc1nc(Cl)nc(NC(C)C)n1
inactive: [11] 100 % of control | [12] 102 % of control | dose: 200.0 mg/kg/injection, schedule: Q01DX009 (ip), vehicle: saline with Tween-80 104 % of control

O=C(CCN1CC1)OC1CCCC1
inactive: dose: 0.75 mg/kg/injection, schedule: Q01DX009 (ip), vehicle: Klucel (hydroxypropylcellulose) (HPC) 111 % of control | dose: 1.5 mg/kg/injection, schedule: Q01DX009 (ip), vehicle: Klucel (hydroxypropylcellulose) (HPC) 105 % of control | dose: 3.0 mg/kg/injection, schedule: Q01DX009 (ip), vehicle: Klucel (hydroxypropylcellulose) (HPC) 108 % of control

CCCCCc1ccc(C(=O)O)cc1
inactive: [10] 105 % of control | [11] 102 % of control | [12] 111 % of control
